Laboratory results published in paper PMC11281459 (Viruses, 2024).
Several values for one entry are separate records, joined by “and”; a condition that tells them apart may be missing. Equal entries are not always repeated. Where two headings read alike, the source gives them in different places.

How the values were obtained:
[1] = test system: MERS-CoV replicon; test: microbe, parasite or virus in culture; type: cell-based; details: Middle East respiratory syndrome-related coronavirus, A549, read-out: EC50 Geomean
[2] = test system: SARS-CoV-2; test: microbe, parasite or virus in culture; type: cell-based
[3] = test system: MERS-CoV; test: microbe, parasite or virus in culture; type: cell-based; details: read-out: IC50 Mean ± SD
[4] = test system: MERS-CoV; test: microbe, parasite or virus in culture; type: cell-based; details: for EC90: read-out: EC90 Mean ± SD
[5] = test system: SARS-CoV-2 (Omicron EG.5.1) and MERS-CoV; type: cell-based
[6] = in vitro; details: African green monkey
[7] = test system: SARS-CoV-2 replicon; test: microbe, parasite or virus in culture; details: Severe acute respiratory syndrome coronavirus 2, A549, read-out: EC50 Geomean
[8] = target: SARS-CoV-1 3CLPro (Severe acute respiratory syndrome coronavirus, UniProt P0C6X7); test: biochemical
[9] = target: MERS-CoV 3CLPro (Middle East respiratory syndrome-related coronavirus, UniProt K9N7C7); test: biochemical
[10] = target: hCoV-229E 3CLPro (Human coronavirus 229E, UniProt P0C6X1); test: biochemical
[11] = target: hCoV-OC43 3CLPro (Human coronavirus OC43, UniProt P0C6X6); test: biochemical
[12] = target: hCoV-HKU1 3CLPro (Human coronavirus HKU1, UniProt P0C6X2); test: biochemical
[13] = target: hCoV-NL63 3CLPro (Human coronavirus NL63, UniProt P0C6X5); test: biochemical
[14] = test system: hCoV-229E; test: microbe, parasite or virus in culture; type: cell-based; details: Human coronavirus 229E, Huh-7, 120 h, read-out: EC50 Geomean
[15] = test system: hCoV-OC43; test: microbe, parasite or virus in culture; type: cell-based; details: Betacoronavirus 1, OC43, Huh-7, 120 h, read-out: EC50 Geomean
[16] = test system: SARS-CoV-2 USA-WA1/2020; parameters: species or system transgenic K18-hACE2 mice; details: mouse, in vivo
[17] = test system: SARS-CoV-2 replicon; details: read-out: EC50 Geomean
[18] = in vivo
[19] = test system: MERS-CoV EMC 2012; details: mouse, in vivo
[20] = K18-hDPP4, mouse, in vivo
[21] = in vivo; details: female, CD-1, mouse; for AUC: po
[22] = in vitro; details: human
[23] = test system: COVID-19; details: human, in vivo; cited from earlier work
[24] = in vivo; cited from earlier work
[25] = test system: Vero E6+TMPRSS2 cells
[26] = Severe acute respiratory syndrome coronavirus 2, read-out: EC50 Geomean
[27] = Middle East respiratory syndrome-related coronavirus, VeroE6/TMPRSS2, 48 h
[28] = Middle East respiratory syndrome-related coronavirus, VeroE6/TMPRSS2, 72 h, read-out: EC50 Mean ± SD
[29] = Middle East respiratory syndrome-related coronavirus, read-out: EC50 Geomean
[30] = Middle East respiratory syndrome-related coronavirus

hCoV-229E 3CLPro, sequence (P0C6X1 2966-3267 limits assumed): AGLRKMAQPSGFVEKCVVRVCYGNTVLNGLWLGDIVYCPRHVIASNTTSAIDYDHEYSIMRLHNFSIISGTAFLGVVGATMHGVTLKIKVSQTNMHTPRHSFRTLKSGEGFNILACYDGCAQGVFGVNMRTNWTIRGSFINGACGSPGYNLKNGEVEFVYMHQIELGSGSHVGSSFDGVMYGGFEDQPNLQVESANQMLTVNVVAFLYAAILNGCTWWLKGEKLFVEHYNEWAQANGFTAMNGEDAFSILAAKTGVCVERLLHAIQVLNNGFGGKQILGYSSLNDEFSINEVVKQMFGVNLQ
hCoV-HKU1 3CLPro, sequence (P0C6X2 3335-3637 limits assumed): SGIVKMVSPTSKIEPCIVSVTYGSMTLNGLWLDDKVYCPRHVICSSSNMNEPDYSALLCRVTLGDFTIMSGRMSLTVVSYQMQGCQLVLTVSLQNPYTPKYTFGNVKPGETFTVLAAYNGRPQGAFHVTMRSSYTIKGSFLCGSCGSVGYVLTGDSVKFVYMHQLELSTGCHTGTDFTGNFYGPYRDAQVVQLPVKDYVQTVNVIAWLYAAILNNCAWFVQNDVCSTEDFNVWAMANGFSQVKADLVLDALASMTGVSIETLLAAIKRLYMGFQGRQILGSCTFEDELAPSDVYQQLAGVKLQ
MERS-CoV 3CLPro, sequence (K9N7C7 3248-3553 limits assumed): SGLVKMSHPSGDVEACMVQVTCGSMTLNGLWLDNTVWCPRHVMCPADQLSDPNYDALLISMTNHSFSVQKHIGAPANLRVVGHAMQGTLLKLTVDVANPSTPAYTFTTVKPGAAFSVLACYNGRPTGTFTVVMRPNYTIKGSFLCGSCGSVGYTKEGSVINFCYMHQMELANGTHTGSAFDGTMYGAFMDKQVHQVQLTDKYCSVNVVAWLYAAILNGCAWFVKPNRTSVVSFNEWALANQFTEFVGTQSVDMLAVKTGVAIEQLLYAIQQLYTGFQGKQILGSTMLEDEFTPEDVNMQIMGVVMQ
hCoV-OC43 3CLPro, sequence (P0C6X6 3247-3549 limits assumed): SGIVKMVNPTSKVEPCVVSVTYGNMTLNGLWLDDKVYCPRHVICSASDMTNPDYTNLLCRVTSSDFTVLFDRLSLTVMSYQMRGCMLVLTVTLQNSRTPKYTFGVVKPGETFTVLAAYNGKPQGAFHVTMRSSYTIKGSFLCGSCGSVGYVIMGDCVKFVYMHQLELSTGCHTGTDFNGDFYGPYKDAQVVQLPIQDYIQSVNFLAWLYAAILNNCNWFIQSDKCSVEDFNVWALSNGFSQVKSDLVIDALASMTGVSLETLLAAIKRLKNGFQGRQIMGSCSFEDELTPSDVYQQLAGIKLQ
hCoV-NL63 3CLPro, sequence (P0C6X5 2940-3242 limits assumed): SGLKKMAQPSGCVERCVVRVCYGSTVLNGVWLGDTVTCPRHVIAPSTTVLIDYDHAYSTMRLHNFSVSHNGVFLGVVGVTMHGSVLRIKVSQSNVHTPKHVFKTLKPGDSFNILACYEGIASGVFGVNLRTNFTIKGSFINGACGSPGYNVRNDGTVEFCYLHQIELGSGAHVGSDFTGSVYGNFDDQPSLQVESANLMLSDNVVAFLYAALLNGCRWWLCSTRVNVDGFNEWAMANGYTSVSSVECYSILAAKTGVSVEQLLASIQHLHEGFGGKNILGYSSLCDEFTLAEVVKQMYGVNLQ

With `CCC(CC)COC(=O)[C@H](C)N[P@](=O)(OC[C@H]1O[C@@](C#N)(c2ccc3c(N)ncnn23)[C@H](O)[C@@H]1O)Oc1ccccc1` [Remdesivir, remdesivir] the EC50 [1] was 780 nM, the EC50 ([2]; Severe acute respiratory syndrome coronavirus 2, VeroE6/TMPRSS2, 72 h, read-out: EC50 Mean ± SD) was 149 ± 4 nM and the EC50 [2, 26] was 170 nM. For the same molecule, the EC50 ([2]; read-out: EC50 Mean ± SD) was 110 nM and 163 nM and 94 nM and 155 nM and 90 nM and 141 nM and 150 nM, the IC50 [3, 27] was 167 ± 33 nM and the EC50 [4, 28] was 110 ± 18 nM. The EC50 [4, 29] was 150 nM, the EC90 [4, 30] was 240 ± 93 nM and the “shift in activity in the presence versus the absence of the P-GP inhibitor” value [5] was “significant shift in activity”. It also gave a CC50 [6] of 20000 nM and an EC50 [7] of 270 nM.
For `CNC(=O)C(=O)[C@H](CCC(C)(F)F)NC(=O)[C@@H]1[C@H]2CCC[C@H]2CN1C(=O)[C@@H](NC(=O)OC)C(C)(C)C` [MK-7845], the IC50 [8] was 19.2 nM, the IC50 [9] was 318 nM and the IC50 [10] was 307 nM. It also gave an IC50 [11] of 17 nM, an IC50 [12] of 25.5 nM and an IC50 [13] of 167 nM. The EC50 [14] was 3150 nM, the EC50 [15] was 370 nM and the EC50 [1] was 270 nM. For the same molecule, the EC50 [2, 26] was 140 nM, the IC50 [3, 27] was 360 nM and the IC50 [3] was 362 ± 65 nM. It also gave an EC50 [4, 28] of 460 nM, an EC50 [4, 29] of 390 nM and an EC90 [4, 30] of 541 ± 10 nM. For the same molecule, the EC50 ([4]; read-out: EC50 Mean ± SD) was 463 ± 8 nM, the body weight change [16] was “gained weight” and the “lung pathology (H&E, semi-quantitative)” value [16] was “significantly reduced”. The “lung pathology compared with vehicle group (H&E, semi-quantitative)” value [16] was “similar”, the “reduction in lung viral load (TCID50)” value [16] was “no significant reduction in viral load” and the “reduction in viral burden (TCID50) versus the nirmatrelvir group” value [16] was 3.4 log and 5 log. The “reduction in viral load by PFU assay compared to vehicle control” value [16] was “did not show a significant reduction in viral load”, the “reduction of lung viral load (TCID50) compared to vehicle control” value [16] was ~ 5 logs and ~ 6 logs and the “reduction in viral burdens in the lungs” value ([16]; po) was > 6 log orders. For the same molecule, the EC50 [17] was 15 nM, the “plasma concentrations versus PBA EC90” value ([18]; CD-1, mouse) was “above the PBA EC90” and the “total plasma concentrations versus replicon EC90 and PBA EC90” value ([18]; mouse) was “stayed above”. The “unbound mouse plasma fraction (fup)” value was 0.379, the “PFU assay of lung homogenate” value [19] was “no plaques were formed” and the “decrease in viral burden by PFU assay compared to vehicle-treated mice” value [19] was ~ 6 log. The “lung pathology (H&E, semi-quantitative)” value [19] was “notable reduction in lung pathology”, the “reduction in viral burden compared to vehicle-control group” value [19] was 3 log TCID50 and the “reduction in viral load by PFU assay in comparison to nirmatrelvir” value [19] was 2.9 log and 3.6 log. For the same molecule, the “viral genomic RNA in lung tissue by RT-PCR” value [19] was “did not observe a significant reduction”, the “reduction in viral burdens in the lungs” value ([19]; po) was > 6 log orders and the “plasma levels at troughs versus PBA EC90” value [20] was “above the PBA EC90”. For the same molecule, the Vd ([21]; iv, 5 mg/kg) was 1.2 L/kg, the clearance ([21]; iv, 5 mg/kg) was 17.5 mL/min/kg and the half-life ([21]; iv, 5 mg/kg) was 47.4 min. For the same molecule, the AUC ([21]; 100 mg/kg) was 49.1 µg·h/mL, the AUC ([21]; 250 mg/kg) was 146 µg·h/mL and the AUC ([21]; 500 mg/kg) was 238 µg·h/mL. The AUC ([21]; 1000 mg/kg) was 306 µg·h/mL, the EC50 [22] was > 36000 nM and the CC50 [6] was > 100000 nM.
Molecule `CC(C)(C)[C@H](NC(=O)C(F)(F)F)C(=O)N1C[C@H]2[C@@H]([C@H]1C(=O)N[C@H](C#N)C[C@@H]1CCNC1=O)C2(C)C` [Nirmatrelvir, nirmatrelvir] has an EC50 [14] of 473 nM, an EC50 [15] of 163 nM and an EC50 [1] of 60 nM. It also gave an EC50 [2, 26] of 70 nM, an EC50 ([2]; read-out: EC50 Mean ± SD) of 50 ± 10 nM and an IC50 [3, 27] of 117 ± 23 nM. The EC50 [4, 28] was 88 ± 30 nM, the EC50 [4, 29] was 70 nM and the EC90 [4, 30] was 164 ± 10 nM. The “lung pathology compared with vehicle group (H&E, semi-quantitative)” value [16] was “similar”, the “lung viral loads (TCID50), dose validation” value [16] was “significant reduction in the lung viral loads” and the “viral lung burden (TCID50 and PFU assay)” value [16] was ~ 6 logs. For the same molecule, the “lung viral loads (TCID50), dose validation” value [19] was “significant reduction in the lung viral loads”, the “reduction in hospitalization rates and deaths” value [23] was 80–90% and the EC50 [22] was > 36000 nM. The CC50 [6] was > 100000 nM, the “increase of plasma levels by ritonavir” value [24] was “up to 20 fold” and the EC50 [7] was 10 nM.
For `COc1cc2c(cc1OC)CN(CCc1ccc(NC(=O)c3cccc4c(=O)c5cccc(OC)c5[nH]c34)cc1)CC2` [elacridar], the “effect of P-GP inhibitor on the infection” value [5] was “did not show an effect on the infection” and the “toxicity of P-GP inhibitor to cells” value [25] was “not toxic”.
